According to patent US4203253A, “Process for increasing oleoresin synthesis in pinus species” (priority 1979, dated 1980):
Like-named read-outs stand apart in the source and are kept apart here.

What was measured:
[1] = cited from earlier work
[2] = system: rats; conditions: cited from earlier work
[3] = system: slash pine (Pinus elliottii Engelm. var. elliottii); assay type: in vivo; conditions: for Rosin yield: 6 months, extracted dry weight
Description: (§1) On Sept. 14, 1973, replicate slash pine (Pinus elliottii Engelm. var. elliottii) were treated with 5 milliliters of either 1 percent (wt.) paraquat, 1 percent (wt.) diquat, 1percent (wt.) diquat plus 5 percent (wt.) 2-chloroethylphosphonic acid or 5 percent (wt.) 2-chloroethylphosphonic acid solutions placed in a bore hole. Each type of treatment was applied to 25 trees selected at random. One tree from each treatment was cut in January 1974. […] Six trees from each treatment were cut in March of 1974, approximately 6 months after treatment.

[4] = system: red pine (Pinus resinosa); experiment: Nonvolatile extractives and dry weight of treated red pine (Example I, Table I); assay type: in vivo; conditions: for Nonvolatile extractives, entire cross section: extracted dry weight
Text: Replicate 20-year-old plantation-grown red pine (Pinus resinosa) of a given diameter class were coned with a watertight cup. Three-hundred milliliters of 2-chloroethylphosphonic acid in various concentrations were placed in the cups, and shallow cuts one-third the circumference were made with a chisel into the xylem portion of the bole under the solution, at approximately 1.5 meters above the ground level. The treatment solution was normally adsorbed within a 24-hour period; this depended, however, on climatic conditions such as temperature and relative humidity. Trees were sacrificed 6 months after treatment and analyzed for nonvolatile extractives at given distances from the point of application, over the entire cross-section of the tree, except where noted (Table I).
^a Trees treated 5/26/76 and harvested 11/2/76. Each tree received 30
milliliters of the indicated concentration of 2chloroethylphosphonic acid
^b Distance in cm from point of treatment application.
^c Ovendry weight/fresh weight.
^d Percentage nonvolatile extractives based on the extracted dry
weight of a sample of the entire cross section.
^e Weight percentage 2chloroethylphosphonic acid in 300 milliliters o
the aqueous treatment solution.
^f Percentage nonvolatile extractives isolated from the visible
lightwood portion of each cross section based on the extracted dry weight
basis of the visible lightwood portion of each cross section.
^g Control trees were wounded and treated with water in the same
manner as the 2chloroethylphosphonic acidtreated trees.

[5] = system: slash pine (Pinus elliottii Engelm. var. elliottii); experiment: Percent oleoresin in slash pine 2 1/2 years after treatment (Example II, Table II); assay type: in vivo; conditions: for Percent oleoresin: dry weight of section
Description: Replicate 40-year-old-slash pine (Pinus elliottii Engelm. var. elliottii) were treated with 5-milliliter aliquotes of 5 percent 2-chloroethylphosphonic acid in bore holes 0.6 meter above the ground. The trees were harvested in March, 1976, 21/2 years after treatment. Analysis of total extractives was made for given portions of the bole beginning 0.5 meter below the point of treatment application (Table II).
^a Percentage based on the dry weight of that section of the tree.
^b Control trees were wounded and treated with water.

[6] = system: slash pine (Pinus elliottii Engelm. var. elliottii); experiment: Average lightwood heights in slash pines (Example V, Table V); assay type: in vivo; conditions: for Average lightwood height: 0% 2-chloroethylphosphonic acid
Description: On October 6 and 7, 1975, a study was begun using replicate slash pine (Pinus elliottii Engelm. var. elliottii) to explore the action of 2-chloroethylphosphonic acid in combination with diquat and/or paraquat. Each tree in the study was treated three times. The first treatment was in October in 1975, the second in March of 1976, and the third in September of 1976. Each time 5 milliliters of a solution of 2-chloroethylphosphonic acid plus paraquat and/or diquat were applied to the tree in a bore hole angled to intersect approximately one-sixth of the trunk. After treatment, the bore hole was stoppered to prevent the escape of ethylene. The trees were cut during November and December of 1976.
^a Measured from point of treatment application.

[7] = system: slash pine (Pinus elliottii Engelm. var. elliottii); assay type: in vivo; conditions: 0% 2-chloroethylphosphonic acid, 1.6 years
[8] = system: slash pine (Pinus elliottii Engelm. var. elliottii); experiment: Oleoresin content and visible lightwood height in slash pines 26 months after treatment (Example IV, Table IV); assay type: in vivo; conditions: for Oleoresin content / Oleoresin content, average per unit total volume: 26 months; for Oleoresin content: extracted dry weight; for Visible lightwood height: 26 months after treatment
Description: as §1

[9] = system: mice; conditions: asphyxiation by exclusion of oxygen; cited from earlier work
[10] = system: endogenous ethylene production; conditions: systemically applied; cited from earlier work
[11] = 0.213 wt%, distance printed "+="
[12] = 1.064 wt%, distance "30." [sic]
[13] = distance above wound printed "0.05" m
[14] = bipyridilium 0.5% (wt) in total

## O=P(O)(O)CCCl [2-chloroethylphosphonic acid]
[1]; typical aqueous solution
  pH of a typical aqueous solution: 1.0 pH
[1]; xylem transport system of the tree
  pH above which hydrolysis begins and ethylene is released: > 5 pH
[2]
  LD50 dosage: 4,229 mg/kg
[3]; 0 m above wound
  Rosin yield: 2.6 Pct
[3]; 5 percent (wt.) alone, approximately 6 months
  Stimulation of visible lightwood formation: did not stimulate visible lightwood formation
[4]; 0.0213 wt%, +15 cm from application
  Dry weight (ovendry weight/fresh weight): 44.5 Pct
[4]; 0.0213 wt%, +15 cm
  Nonvolatile extractives, entire cross section: 3.7 Pct
[4]; 0.0213 wt%, +50 cm from application
  Dry weight (ovendry weight/fresh weight): 46.6 Pct
[4]; 0.0213 wt%, +50 cm
  Nonvolatile extractives, entire cross section: 3.4 Pct
[4]; 0.0213 wt%, -15 cm from application
  Dry weight (ovendry weight/fresh weight): 43.1 Pct
[4]; 0.0213 wt%, -15 cm
  Nonvolatile extractives, entire cross section: 3.1 Pct
[4]; 0.213 wt%, +15 cm from application
  Dry weight (ovendry weight/fresh weight): 44.8 Pct
[4]; 0.213 wt%, +15 cm
  Nonvolatile extractives, entire cross section: 3.2 Pct
[4]; 0.213 wt%, -15 cm from application
  Dry weight (ovendry weight/fresh weight): 45.5 Pct
[4]; 0.213 wt%, -15 cm
  Nonvolatile extractives, entire cross section: 3.4 Pct
[4]; [11]
  Dry weight (ovendry weight/fresh weight): 46.5 Pct
  Nonvolatile extractives, entire cross section: 3.4 Pct
[4]; 1.064 percent (wt.), red pine, 6 months
  Increase of extractive content versus water-treated controls: Doubling of the extractive content
[4]; 1.064 wt%, +50 cm from application
  Dry weight (ovendry weight/fresh weight): 56.7 Pct
[4]; 1.064 wt%, +50 cm
  Nonvolatile extractives, entire cross section: 7.2 Pct
  Nonvolatile extractives, visible lightwood portion: 18.8 Pct
[4]; 1.064 wt%, +110 cm from application
  Dry weight (ovendry weight/fresh weight): 50.3 Pct
[4]; 1.064 wt%, +110 cm
  Nonvolatile extractives, entire cross section: 3.4 Pct
[4]; 1.064 wt%, +150 cm from application
  Dry weight (ovendry weight/fresh weight): 50.1 Pct
[4]; 1.064 wt%, +150 cm
  Nonvolatile extractives, entire cross section: 3.8 Pct
[4]; 1.064 wt%, -15 cm from application
  Dry weight (ovendry weight/fresh weight): 54.1 Pct
[4]; 1.064 wt%, -15 cm
  Nonvolatile extractives, entire cross section: 4.0 Pct
[4]; [12]
  Dry weight (ovendry weight/fresh weight): 58.9 Pct
  Nonvolatile extractives, entire cross section: 6.2 Pct
  Nonvolatile extractives, visible lightwood portion: 9.3 Pct
[4]; 2.127 wt%, +15 cm from application
  Dry weight (ovendry weight/fresh weight): 67.8 Pct
[4]; 2.127 wt%, +15 cm
  Nonvolatile extractives, entire cross section: 3.1 Pct
[4]; 2.127 wt%, +50 cm from application
  Dry weight (ovendry weight/fresh weight): 69.7 Pct
[4]; 2.127 wt%, +50 cm
  Nonvolatile extractives, entire cross section: 3.1 Pct
[4]; 2.127 wt%, -15 cm from application
  Dry weight (ovendry weight/fresh weight): 66.5 Pct
[4]; 2.127 wt%, -15 cm
  Nonvolatile extractives, entire cross section: 5.4 Pct
[4]; treated trees, dehydration
  Change in dry weight percentage (oven dry weight/fresh weight): increase in dry weight percentage
[4]; visible lightering portions of cross section
  Increase in extractives in visibly lightered portions versus control trees: three to six times that of control trees
[5]; 5% (wt), 0-3 m from application, 2 1/2 years
  Percent oleoresin: 4.3%
[5]; 5% (wt), 3-6 m from application, 2 1/2 years
  Percent oleoresin: 3.7%
[5]; 5% (wt), above 6 m from application, 2 1/2 years
  Percent oleoresin: 3.1%
[5]; 5% (wt), average, dry weight, 2 1/2 years
  Percent oleoresin, average: 3.6%
[5]; 5 percent, 2 1/2 years after treatment
  Visible lightwood: No visible lightwood was observed
[5]; 5 percent, 5 ml in bore holes
  Distance holding most of the increase in oleoresin production: 0-3 meters
  Increase of volatile versus nonvolatile oleoresins: A greater increase in the volatile (turpentine) than in the nonvolatile (resin) oleoresins
[6]; Example V combinations
  Effect on lightwood stimulation by diquat and paraquat: increases the lightwood stimulating effects of diquat and paraquat

## c1cc[n+]2c(c1)-c1cccc[n+]1CC2 [diquat]
[2]
  LD50 dosage: 100 mg/kg
[3]; 0 m above wound
  Rosin yield: 5.5 Pct
[3]; 0.5 m above wound
  Rosin yield: 2.1 Pct
[3]; 1 m above wound
  Rosin yield: 2.3 Pct
[3]; in vivo
  Height of oleoresin soaked wood (visible lightwood): less than diquat plus 2-chloroethylphosphonic acid-treated trees
[7]; bipyridilium 0.5% (wt)
  Extractive content in total merchantable length: 15.2 lbs. extractives per average tree
[7]; bipyridilium 2% (wt)
  Extractive content in total merchantable length: 17.3 lbs. extractives per average tree
[8]; 0.5-1 m above wound
  Oleoresin content: 9.6%
[8]; 1-1.5 m above wound
  Oleoresin content: 4.5%
[8]; 1.5-2.5 m above wound
  Oleoresin content: 3.5%
[8]; 2.5-4.5 m above wound
  Oleoresin content: 2.8%
[8]; 4.5-6.5 m above wound
  Oleoresin content: 1.9%
[8]
  Visible lightwood height: 2.5-3 meters
  Oleoresin content, average per unit total volume: 4.1%
[8]; [13]
  Oleoresin content: 8.9%
[6]; [14]
  Average lightwood height: 1.8 meters
[6]; bipyridilium 2% (wt) in total
  Average lightwood height: 3.1 meters

## C=C [ethylene]
[9]
  toxic concentration of gaseous ethylene: 950,000 ppm

## CCCN [n-propylamine]
[2]
  LD50 dosage: 560 mg/kg

## C[n+]1ccc(-c2cc[n+](C)cc2)cc1 [paraquat]
[10]
  endogenous ethylene production: marked stimulation of endogenous ethylene production
  respiration rates: rapid increase in respiration rates
[2]
  LD50 dosage: 100 mg/kg
[3]; 0 m above wound
  Rosin yield: 8.1 Pct
[3]; 0.5 m above wound
  Rosin yield: 2.0 Pct
[3]; cut March 1974, approximately 6 months
  Height of oleoresin soaked wood (visible lightwood): less than in diquat-treated trees
[7]; bipyridilium 0.5% (wt)
  Extractive content in total merchantable length: 14.8 lbs. extractives per average tree
[7]; bipyridilium 2% (wt)
  Extractive content in total merchantable length: 17.1 lbs. extractives per average tree
[8]; 0.5-1 m above wound
  Oleoresin content: 12.2%
[8]; 1-1.5 m above wound
  Oleoresin content: 5.9%
[8]; 1.5-2.5 m above wound
  Oleoresin content: 3.7%
[8]; 2.5-4.5 m above wound
  Oleoresin content: 2.4%
[8]; 4.5-6.5 m above wound
  Oleoresin content: 2.0%
[8]
  Visible lightwood height: ≤ 2 meters
  Oleoresin content, average per unit total volume: 4.6%
[8]; [13]
  Oleoresin content: 10.7%
[6]; [14]
  Average lightwood height: 1.4 meters
[6]; bipyridilium 2% (wt) in total
  Average lightwood height: 2.8 meters
